Laboratory results: patent publication US20220401329A1, “ARTIFICIAL MELANIN NANOPARTICLES AND PRECURSOR MOLECULES AS HAIR DYES” (Northwestern University, priority 2019, published 2022)
Marks after values point to notes of the source that are not given here.

Experiments:
[1] = system: Agaricus bisporus tyrosinase (EC 1.14.18.1); test: Monomer consumption in tyrosinase-mediated oxidation, by RP-HPLC; type: biochemical; conditions: 84 nM tyrosinase; for monomer consumption (%) after 2 h reaction: 0.5 mg/mL monomer in water
Method: The use of chemoenzymatic oxidative polymerization to produce multifunctional hair coatings has two main advantages. First, it is performed at neutral pH, avoiding the need for basic additives such as NH4OH. Second, it allows the use of substrates other than DA, such as phenolamines and amino acids. Mushroom tyrosinase has recently been used to promote polydopamine-based film deposition^40 and nanoparticles formation^41 starting from dopamine as well as natural phenolamines. […] As previously reported,^40 a 6 h reaction time was necessary to obtain effective darkening of the reaction solutions, performed either in water or Dulbecco's phosphate-buffered saline (DPBS) buffer (FIGS. 23A and 29). Across all tested monomers (L-Tyr, TA, DA), color darkening was associated with an initial increase, then decrease in UV-Vis absorption at 310 nm and 475 nm (FIGS. 23B and 30A-30D). A decrease in these signals, deriving from quinone and cyclic amine species respectively,^40 after the 6 h reaction is indicative of successful polymerization and deposition.^40 We next performed these reactions at 35° C. and at neutral pH, optimal reaction parameters for mushroom tyrosinase.^42 This led to a faster process with solutions turning brown/black several minutes after reaction initiation (FIG. 23A). […] This was confirmed by the rapid disappearance of the peak at 310 nm and 480 nm, as monitored by UV-Vis (FIGS. 23B and 30A-30D). […] (FIGS. 23C and 31A-31B and Table 2). At five-fold higher concentration of 420 nM (50 U/mL) we observed almost complete monomer consumption (FIG. 23D). Monitoring Monomer Consumption via RP-HPLC studies. Monomer consumption after a 2 h reaction was determined by RP-HPLC. Reactions were performed either at rt or at 35° C. and using either 84 nM or […] (five fold) tyrosinase.

[2] = Solubility of monomers in water; type: physicochemical

substrate for mushroom tyrosinase ([1]; 0.5 mg/mL, 2 hours at 35° C. (FIG. 33A)) | solubility [2] | monomer consumption (%) after 2 h reaction ([1]; 35° C.) | monomer consumption (%) after 2 h reaction ([1]; rt) | SMILES
good substrate | ≥ 26 mM | – | – | COC(=O)[C@@H](N)Cc1ccc(O)cc1 [L-Tyr-OMe, L-tyrosine methyl ester]
– | – | 86% | 76% | NCCc1ccc(O)cc1 [TA, tyramine]
– | – | 86% | 55%* | N[C@@H](Cc1ccc(O)cc1)C(=O)O [L-Tyr, L-tyrosine]
– | – | 91% | 65% | NCCc1ccc(O)c(O)c1 [DA, dopamine]
